The data set relates to CYP3A. It counts as in vitro ADME, human. As to conditions: HLM. The source says:
Compound 5 (PTG-630 free base) and 7 additional compounds for CYP3A P450 inhibition.
Imidazole (and benzimidazole) containing drugs are ubiquitous in pharmacological practice; however, drug-drug interactions (DDI) have been observed with some imidazole-containing classes, such as the antifungal azoles typified by ketoconazole. It is believed that the imidazole moiety accounts for their ability to inhibit CYP3A, the major DDI enzyme that metabolizes up to 50% of common drugs. The compounds of the disclosure incorporate an imidazole moiety attached to a pyridine ring via the imidazole C-2. They all share an imidazo-hydroxypyridine theme that can bind redox metal ions, while differing in the nature of the X side-chain. The potential of the compounds of the disclosure for DDI was evaluated by screening their inhibition of CYP3A.
Two studies were conducted in human liver microsomes (HLM). Lead candidate PTG-630 was tested using the Eurofins G232 panel (Drug Metab Dispos. 2001 January; 29(1):23-9), where inhibition was measured against seven CYP enzymes; CYP3A4 was tested using two different substrates, midazolam and testosterone. In a second study, inhibition of CYP3A4 (midazolam substrate only) was compared for 8 compounds of interest. The test protocol involved one-point measurements in duplicate, where inhibition was measured at a fixed 10 μM concentration of candidate inhibitors. In all cases, the substrate for each CYP enzyme was at a concentration equal to its specific Km value that was independently obtained from an 8-point dose-response study. Based on the observed value for percent inhibition for each test compound, we calculated of an IC50 assuming a competitive mode of inhibition. If percent inhibition for an inhibitor at a concentration of [I] is denoted by P, then: IC50=[I]*(100−P)/P In the single-point assay, [I] is 10 μM. If measured inhibition is 10%, then IC50=10*(100-10)/10=90 μM. […] As discussed in Lin et al. (J Pharm Sci. 2007 September; 96(9):2485-93; doi: 10.1002/jps.20884), CYP inhibition is broadly interpreted as being “potent” if IC50<1 μM, “moderate” if 1 μM<IC50<10 μM, and “weak” if IC50>10 μM.

Turning to `Cc1ncc(CN2CCCCCC2)c(-c2ncc[nH]2)c1O` [PTG-670], the “Estimated IC50” value (midazolam, from one-point % inhibition at 10 μM, IC50=[I]*(100−P)/P) is “— None”. Besides, the P % inhib (substrate midazolam at Km, Inhib Conc. 1.0E−05 M) is −1.1%.

The record behind these values is patent US12139472B2, “Inhibitors of advanced glycation end products” (priority 2019, dated 2024).
